Experimental findings from patent US8937167B2 (Washington University, priority 2009, dated 2015) are described below.

The target in this assay is FimH (Escherichia coli, UniProt Q1R2J4). The conditions noted are these: for HAI Titer EC>50: Table 21.
The mark [1] stands for this setting: Table 19, Examples 30-36 numbering.

Structures are written as SMILES. Like-named read-outs stand apart in the source and are kept apart here. Bounds are passed on as bounds.
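Further: hemagglutination inhibition of guinea pig erythrocytes agglutinated by type 1 piliated uropathogenic E. coli via FimH mannose binding, quantified through serial dilutions of compound.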

On to `O=C(NCCCCOC1OC(CO)C(O)C(O)C1O)c1ccc(-c2c3ccc(=O)cc-3oc3cc(O)ccc23)c(C(=O)O)c1` (stereo not shown) [Compound 1ZFH134B, 2-(3-hydroxy-6-oxo-xanthen-9-yl)-5-[4-[3,4,5-trihydroxy-6-(hydroxymethyl)tetrahydropyran-2-yl]oxybutylcarbamoyl]benzoic acid], for which the “HAI Titer EC>90” value is 125.000 µM.

Regarding `COc1cccc(-c2ccc(OC3OC(CO)C(O)C(O)C3O)cc2)c1` (stereo not shown) [Compound 3ZFH190, 2-(hydroxymethyl)-6-[4-(3-methoxyphenyl)phenoxy]tetrahydropyran-3,4,5-triol], the “HAI Titer EC>90” value stood at 1.500 µM.

As for `O=C(NCCCCOC1OC(CO)C(O)C(O)C1O)c1ccc(C(=O)O)c(-c2c3ccc(=O)cc-3oc3cc(O)ccc23)c1` (stereo not shown) [Compound 1ZFH134A, 2-(3-hydroxy-6-oxo-xanthen-9-yl)-4-[4-[3,4,5-trihydroxy-6-(hydroxymethyl)tetrahydropyran-2-yl]oxybutylcarbamoyl]benzoic acid], the “HAI Titer EC>90” value was determined as 125.000 µM.

On to `OCC1OC(Oc2ccc3ccccc3c2)C(O)C(O)C1O` (stereo not shown) [Compound 1ZFH185, 2-(hydroxymethyl)-6-(2-naphthyloxy)tetrahydropyran-3,4,5-triol], for which the “HAI Titer EC>90” value came to 6.000 µM.

In the case of `OCc1cccc(-c2ccc(OC3OC(CO)C(O)C(O)C3O)cc2)c1` (stereo not shown) [Compound 3ZFH18, 2-(hydroxymethyl)-6-[4-[3-(hydroxymethyl)phenyl]phenoxy]tetrahydropyran-3,4,5-triol], the “HAI Titer EC>90” value is 3.000 µM.

As to `O=C(Nc1ccncc1)c1cccc(-c2ccc(OC3OC(CO)C(O)C(O)C3O)cc2)c1` (stereo not shown) [Compound 3ZFH256, N-(4-pyridyl)-3-[4-[3,4,5-trihydroxy-6-(hydroxymethyl)tetrahydropyran-2-yl]oxyphenyl]benzamide], the “HAI Titer EC>90” value amounted to 0.25 µM.

Regarding `O=[N+]([O-])c1cccc(OC2OC(CO)C(O)C(O)C2O)c1` (stereo not shown) [Compound 2ZFH100, 2-(hydroxymethyl)-6-(3-nitrophenoxy)tetrahydropyran-3,4,5-triol], the “HAI Titer EC>90” value came out at 16.000 µM.

Turning to `OCc1ccc(-c2ccc(OC3OC(CO)C(O)C(O)C3O)cc2)cc1` (stereo not shown) [Compound 3ZFH24, 2-(hydroxymethyl)-6-[4-[4-(hydroxymethyl)phenyl]phenoxy]tetrahydropyran-3,4,5-triol], the “HAI Titer EC>90” value amounted to 6.000 µM.

Regarding `COC(=O)c1cc2ccc(OC3OC(CO)C(O)C(O)C3O)cc2s1` (stereo not shown) [Compound 2ZFH304, methyl 6-[3,4,5-trihydroxy-6-(hydroxymethyl)tetrahydropyran-2-yl]oxybenzothiophene-2-carboxylate], the “HAI Titer EC>90” value came to 2.000 µM.

In the case of `N#Cc1ccccc1OC1OC(CO)C(O)C(O)C1O` (stereo not shown) [Compound 3m], the EC50 (read-out: HA 50% Titer, Table 10, Example 6 numbering) came to 6 µM.

Consider `COC(=O)c1ccc(-c2ccc(O[C@H]3O[C@H](CO)[C@@H](O)[C@H](O)[C@@H]3O)cc2)s1` [Compound 13b, Methyl 5-[4-[(2R,3S,4S,5S,6R)-3,4,5-trihydroxy-6-(hydroxymethyl)tetrahydropyran-2-yl]oxyphenyl]thiophene-2-carboxylate], for which the “HAI Titer EC>90” value under setting [1] is 1.0 µM.

As for `CNC(=O)c1cc(C(=O)NC)cc(-c2ccc(OC3O[C@@H](CO)[C@@H](O)[C@H](O)[C@H]3O)c(C)c2)c1` (stereo partly drawn) [Compound 4ZFH284, N1,N3-dimethyl-5-[3-methyl-4-[(3R,4S,5S,6S)-3,4,5-trihydroxy-6-(hydroxymethyl)tetrahydropyran-2-yl]oxy-phenyl]benzene-1,3-dicarboxamide], the “HAI Titer EC>90” value was 0.016 µM. For the same compound, the “HAI Titer EC>50” value (ZFH/JWJ codes) was 0.016 µM. For the same compound, the “HAI Titer EC>90” value (Table 22, ZFH/JWJ codes) is 0.016 µM.

`O=[N+]([O-])c1ccc(OC2OC(CO)C(O)C(O)C2O)cc1` (stereo not shown) [PNP-mannoside, reference compound]: the “HAI Titer EC>90” value came to 31.000 µM.

With `OCC1OC(Oc2cc(F)c(F)c(F)c2)C(O)C(O)C1O` (stereo not shown) [Compound 1ZFH282, 2-(hydroxymethyl)-6-(3,4,5-trifluorophenoxy)tetrahydropyran-3,4,5-triol], the “HAI Titer EC>90” value came out at 125.000 µM.

Consider `CC(=O)Nc1ccc(-c2ccc(OC3OC(CO)C(O)C(O)C3O)cc2)cc1C(=O)O` (stereo not shown) [Compound 4ZFH306], for which the “HAI Titer EC>50” value (ZFH/JWJ codes) is 0.750 µM.

Take `COC(=O)c1cc(-c2ccc(OC3OC(CO)C(O)C(O)C3O)cc2)ccn1` [Compound 3ZFH220, methyl 4-[4-(a-D-mannopyranosyloxy)phenyl]pyridine-2-carboxylate]: the “HAI Titer EC>90” value is 0.500 µM.

As for `CNS(=O)(=O)c1cccc(-c2ccc(OC3OC(CO)C(O)C(O)C3O)cc2)c1` (stereo not shown) [Compound 3ZFH179, N-methyl-3-[4-[3,4,5-trihydroxy-6-(hydroxymethyl)tetrahydropyran-2-yl]oxyphenyl]benzenesulfonamide], the “HAI Titer EC>90” value is 1.000 µM.

Consider `COC(=O)c1csc(-c2ccc(O[C@H]3O[C@H](CO)[C@@H](O)[C@H](O)[C@@H]3O)cc2)c1` [Compound 13d], for which the “HAI Titer EC>90” value under setting [1] was 2.0 µM.

Regarding `Cc1ccc(OC2OC(CO)C(O)C(O)C2O)cc1` (stereo not shown) [Compound 2ZFH175, 2-(hydroxymethyl)-6-(4-methylphenoxy)tetrahydropyran-3,4,5-triol], the “HAI Titer EC>90” value was found to be 8.000 µM.

As for `N#Cc1ccccc1-c1ccc(OC2OC(CO)C(O)C(O)C2O)cc1` (stereo not shown) [Compound 3ZFH64, 2-[4-[3,4,5-trihydroxy-6-(hydroxymethyl)tetrahydropyran-2-yl]oxyphenyl]benzonitrile], the “HAI Titer EC>90” value amounted to 2.000 µM.

Usually EC90 stands for the concentration needed for an effect of 90%. Consider `OCc1ccccc1-c1ccc(OC2OC(CO)C(O)C(O)C2O)cc1` (stereo not shown) [Compound 14g], for which the “fold less potent in HA titer” value (ortho 14g relative to meta 14h) is “over 5 fold”. Where the note is “read-out: 50% HA titer, Example 6 numbering”, the EC50 stood at 16 µM. Besides, the EC90 (read-out: HA 50% titer EC90, Table 12, Example 6 numbering) came to 16 µM.

Consider `O=[N+]([O-])c1ccc(-c2ccc(OC3OC(CO)C(O)C(O)C3O)cc2)cc1` (stereo not shown) [Compound 3ZFH72, 2-(hydroxymethyl)-6-[4-(4-nitrophenyl)phenoxy]tetrahydropyran-3,4,5-triol], for which the “HAI Titer EC>90” value was determined as 2.000 µM.

As to `O=C(NCCCCCCCCNC(=O)c1cccc(-c2ccc(OC3OC(CO)C(O)C(O)C3O)cc2)c1)c1cccc(-c2ccc(OC3OC(CO)C(O)C(O)C3O)cc2)c1` (stereo not shown) [Compound 2ZFH234, 3-[4-[3,4,5-trihydroxy-6-(hydroxymethyl)tetrahydropyran-2-yl]oxyphenyl]-N-[8-[[3-[4-[3,4,5-trihydroxy-6-(hydroxymethyl)tetrahydropyran-2-yl]oxyphenyl]benzoyl]amino]octyl]benzamide], the “HAI Titer EC>90” value was found to be 2.00 µM.

For `OC[C@@H]1OC(Oc2ccc(-c3ccc4ncncc4c3)cc2)[C@H](O)[C@@H](O)[C@@H]1O` (stereo partly drawn) [Compound 4ZFH247, (2S,3S,4S,5R)-2-(hydroxymethyl)-6-(4-quinazolin-6-ylphenoxy)tetrahydropyran-3,4,5-triol], the “HAI Titer EC>90” value is 0.375 µM. Besides, the “HAI Titer EC>50” value (ZFH/JWJ codes) is 0.375 µM. In addition, under “Table 22, ZFH/JWJ codes”, the “HAI Titer EC>90” value was found to be 0.375 µM.

For `COC(=O)c1ccc(-c2cccc(OC3OC(CO)C(O)C(O)C3O)c2)cc1` (stereo not shown) [Compound 1ZFH265, methyl 4-[3-[3,4,5-trihydroxy-6-(hydroxymethyl)tetrahydropyran-2-yl]oxyphenyl]benzoate], the “HAI Titer EC>90” value was found to be 6.000 µM.

Consider `OCC1OC(Oc2cccc(Cl)c2)C(O)C(O)C1O` (stereo not shown) [Compound 2ZFH181, 2-(3-chlorophenoxy)-6-(hydroxymethyl)tetrahydropyran-3,4,5-triol], for which the “HAI Titer EC>90” value came to 8.000 µM.

Turning to `CNC(=O)c1cccc(-c2ccc([C@@H](O)C3OC(CO)C(O)C(O)C3O)cc2)c1` (stereo partly shown) [Compound 5ZFH38], the “HAI Titer EC>50” value (ZFH/JWJ codes) is 0.250 µM.

As for `O=C(Nc1cccnc1)c1cccc(-c2ccc(OC3OC(CO)C(O)C(O)C3O)cc2)c1` (stereo not shown) [Compound 3ZFH265, N-(3-pyridyl)-3-[4-[3,4,5-trihydroxy-6-(hydroxymethyl)tetrahydropyran-2-yl]oxyphenyl]benzamide], the “HAI Titer EC>90” value was determined as 0.375 µM.

As to `COC(=O)c1cc(-c2ccc(OC3OC(CO)C(O)C(O)C3O)cc2)ccc1NC(C)=O` (stereo not shown) [Compound 4ZFH308], the “HAI Titer EC>50” value (ZFH/JWJ codes) stood at 0.250 µM.

In the case of `N#Cc1cccc(-c2ccc(OC3OC(CO)C(O)C(O)C3O)cc2)c1` (stereo not shown) [Compound 3ZFH68, 3-[4-[3,4,5-trihydroxy-6-(hydroxymethyl)tetrahydropyran-2-yl]oxyphenyl]benzonitrile], the “HAI Titer EC>90” value was 1.000 µM.

`N#Cc1ccccc1OC1OC(CO)C(O)C(O)C1O` (stereo not shown) [Compound 2ZFH108, 2-[3,4,5-trihydroxy-6-(hydroxymethyl)tetrahydropyran-2-yl]oxybenzonitrile]: the “HAI Titer EC>90” value was 6.000 µM.

For the compound `COC1OC(CO)C(O)C(O)C1O` (stereo not shown) [Methylaman, reference compound], for the setting “read-out: HA 50% titer, Example 6 numbering”, the EC50 was > 1000 µM.

As for `COc1ccccc1-c1ccc(OC2OC(CO)C(O)C(O)C2O)cc1` (stereo not shown) [Compound 3ZFH188, 2-(hydroxymethyl)-6-[4-(2-methoxyphenyl)phenoxy]tetrahydropyran-3,4,5-triol], the “HAI Titer EC>90” value came to 2.000 µM.

`O=C(c1cccc(-c2ccc(OC3OC(CO)C(O)C(O)C3O)cc2)c1)N1CCNCC1` (stereo not shown) [Compound 3ZFH284, piperazin-1-yl-[3-[4-[3,4,5-trihydroxy-6-(hydroxymethyl)tetrahydropyran-2-yl]oxyphenyl]phenyl]methanone]: the “HAI Titer EC>90” value is 4.0000 µM.

On to `OCC1OC(Oc2ccc(-c3ccccc3O)cc2)C(O)C(O)C1O` (stereo not shown) [Compound 3ZFH111, 2-(hydroxymethyl)-6-[4-(2-hydroxyphenyl)phenoxy]tetrahydropyran-3,4,5-triol], for which the “HAI Titer EC>90” value was found to be 8.000 µM.

Regarding `NCCNC(=O)c1cccc(-c2ccc(O[C@H]3O[C@H](CO)[C@@H](O)[C@H](O)[C@@H]3O)cc2)c1` [Compound 10b, N-(2-Aminoethyl)-3-[4-[(2R,3S,4S,5S,6R)-3,4,5-trihydroxy-6-(hydroxymethyl)tetrahydropyran-2-yl]oxyphenyl]benzamide], the “HAI Titer EC>90” value (Table 18, Examples 30-36 numbering) amounted to 3.0 µM. Also, under “relative to methyl amide 2”, the “fold drop in HAI activity” value stood at 6 fold.
